Target: T1, HECT of NEDD4 L553F (Homo sapiens, UniProt P46934, L972F)
T1 construct: 250 nM untagged HECT of NEDD4 WT or NEDD4 L553F or NEDD4L WT; made in house
T1 sequence (P46934 519-900 isoform P46934-4 L553F limits assumed): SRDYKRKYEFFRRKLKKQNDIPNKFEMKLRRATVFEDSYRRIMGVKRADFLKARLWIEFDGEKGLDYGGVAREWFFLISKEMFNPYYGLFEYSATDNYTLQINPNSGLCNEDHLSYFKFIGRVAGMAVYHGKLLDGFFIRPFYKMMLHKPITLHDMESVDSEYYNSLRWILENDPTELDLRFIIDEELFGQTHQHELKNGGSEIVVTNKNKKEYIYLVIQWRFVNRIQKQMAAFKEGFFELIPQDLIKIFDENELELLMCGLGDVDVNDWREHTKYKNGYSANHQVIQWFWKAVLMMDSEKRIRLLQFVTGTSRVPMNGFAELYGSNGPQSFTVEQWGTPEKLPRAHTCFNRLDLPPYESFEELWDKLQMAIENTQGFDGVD
Assay: In vitro ubiquitination assay detected by western blot, HECT NEDD4 L553F mutant
Format: biochemical
Details: 10 μM; FIG. 4c
Method: In vitro ubiquitination assay performed with HECT NEDD4 WT and HECT NEDD4L WT in presence of the indicated compounds at 10 μM concentration. The symbol “−” indicates the DMSO-treated sample. Reactions were stopped after 1 hour with Laemmli buffer. […] HECT of NEDD4 bound to compound 12 is shown in light grey, superposed with the structure of HECT of NEDD4L (pdb entry 2oni, version 1.2, 13 Jul. 2011, shown in dark grey). c. In vitro ubiquitination assay using the HECT of NEDD4 WT (HECT WT) and L553F (HECT L553F) was performed in presence of compound 12 at 10 μM concentration. The symbol “-” indicates the DMSO-treated sample. Immunoblot was performed with the anti-ubiquitin antibody (upper panel).
An in vitro ubiquitination assay followed by western blot detection was used to determine the selectivity of the different compounds. The full protocol is described in (E. Maspero et al. Methods Mol Biol. 1449:153-60 (2016)). Briefly, the assay was performed with bacterially purified enzymes (20 nM E1, 250 nM of purified His6-tagged UBE2D3 and 250 nM untagged HECT of NEDD4 WT or NEDD4 L553F or NEDD4L WT) and 1 μM of untagged ubiquitin in ubiquitination buffer (25 mM Tris-HCl, pH 7.6, 5 mM MgCl2, 100 mM NaCl, 0.2 μM DTT). […] The binding pocket determined by X-ray is highly conserved among the various members of the NEDD4 family with few important exceptions. […]

- activity of compound on HECT NEDD4 L553F mutant (anti-ubiquitin immunoblot): fully abrogate the activity
SMILES: CCOC(=O)/C=C/CNCCCCN1c2ccccc2CCc2ccc(Cl)cc21.O=C(O)/C=C\C(=O)O [Compound 12, Ethyl (E)-4-[4-(3-chloro-10,11-dihydro-5H-dibenzo[b,f]azepin-5-yl)butylamino]but-2-enoate maleate]

Source: US12403144B2, “HECT E3 ligase inhibitors and uses thereof” (IFOM FONDAZIONE ISTITUTO FIRC DI ONCOLOGIA MOLECOLARE, priority 2019, dated 2025)
